Columns and labels:
[1] = DPPH radical scavenging assay; conditions: three independent experiments; read-out: Mean IC50 (mM) for initial DPPH radicals ± SD
Experimental: The antioxidant activities of the studied compounds were assessed using the 1,1-diphenyl-2-picrylhydrazyl (DPPH) radical scavenging method as detailed by Bersuder et al.. The results were expressed as IC50 (mM)—the concentration of the test compound required to neutralize 50% of DPPH radicals.
The antioxidant efficiencies of target compounds were determined using the 1,1-diphenyl-2-picrylhydrazyl (DPPH) radical scavenging method as detailed by Bersuder et al.. […]
S3.2. Evaluation of Biological Activities.
S3.2.1. In vitro DPPH radical scavenging assay.
The antioxidant efficiencies of compounds—3a−e, 8, 9a−c, 13, 14, 17, 18a−h, 20, 22, 23, and 25—were
determined using the 1,1-diphenyl-2-picrylhydrazyl (DPPH) radical scavenging method as
detailed by Bersuder et al.. Fundamentally, the purple color of the stabilized DPPH radical
fades in the presence of an antioxidant, thus, the change of absorbance can be followed
spectrophotometrically at 519 nm. In the assay, equal volumes (0.5 mL) of DPPH ethanolic solution
and each compound (0-2 mg/mL in DMSO) or butylated hydroxytoluene (BHT) as the reference
were mixed well by shaking. The negative control consisted of the same amount of DMSO and
DPPH solution. After, incubation all mixtures at room temperature in the dark for one hour, the
absorbance of the residual DPPH radicals was measured at 519 nm using the UV‐vis
spectrophotometer. The DPPH radical scavenging activity of each compound (%) was calculated
Scavenging activity = (1 − Acompound/AControl) * 100, where Acompound and Acontrol the absorbance values
of each tested compound (or BHT) and the negative control, respectively. The half maximal
inhibitory concentration (IC50) for each compound in mg/mL was deduced by graphing the dose-
response curve relating the scavenging activity (%) to the compound concentration. Data points
represent the mean ± standard deviation (SD) of three independent determinations.

PDK-1 = PDK-1 (Homo sapiens, UniProt Q15118); test: In vitro PDK-1 inhibition assay (Kinase-Glo luminescent kinase kit); type: biochemical; conditions: for inhibition at 100 µg/mL: three replicates, read-out: Mean Inhibition Percent ± SD, PDK-1
Sequence of PDK-1 (Q15118 29-436): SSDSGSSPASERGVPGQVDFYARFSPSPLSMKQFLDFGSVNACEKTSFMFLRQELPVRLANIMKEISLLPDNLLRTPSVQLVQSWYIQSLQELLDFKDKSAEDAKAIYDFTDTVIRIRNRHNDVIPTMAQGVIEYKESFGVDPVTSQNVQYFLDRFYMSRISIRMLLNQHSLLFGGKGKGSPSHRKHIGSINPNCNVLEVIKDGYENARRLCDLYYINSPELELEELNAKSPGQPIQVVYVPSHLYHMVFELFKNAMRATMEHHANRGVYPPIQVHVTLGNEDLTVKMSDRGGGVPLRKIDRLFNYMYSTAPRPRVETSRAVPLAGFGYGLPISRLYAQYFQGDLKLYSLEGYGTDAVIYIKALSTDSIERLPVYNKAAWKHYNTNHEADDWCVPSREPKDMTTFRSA
Experimental: Principally, the PDK-1 inhibitory activities were evaluated using the non-radioactive Kinase-Glo™ Luminescent Kinase Kit (Promega Corporation, Madison, WI, USA) following the instructions of the manufacturer.
S3.2.2. In vitro PDK-1 inhibition assay.
The PDK-1 inhibitory activities of the test compounds were evaluated using the non-radioactive
Kinase-Glo™ Luminescent Kinase kit (Promega Corporation, Madison, WI, USA), following the
manufacturer’s protocol. Briefly, 5 μL of assay buffer—containing 10 × 250 mM Tris-HCl, 50 mM
MgCl2, 5 mM ethyleneglycol-bis(β-aminoethylether)-N,N,N′,N′-tetraacetic acid (EGTA), 10 mM
ethylenedi- aminetetraacetic acid (EDTA), and 10 mM dithiothreitol (DTT)—was added to each
well of a 96-well plate, along with 25 μL of distilled water. Subsequently, 5 μL of each test
compound at various concentrations (50, 100, 200 and 300 μg/mL in 1% DMSO) was added to the
respective wells, except for the two control wells, which received 5 μL of either PBS buffer or 1%
DMSO. Then, 5 μL of pyruvate dehydrogenase E1 (PDH E1) protein (10 μM) and 5 μL of ATP
(10 μM) were added to each well. To initiate phosphorylation, 5 μL of PDK-1 (20 μM) in protein
buffer (1 mM MgCl2, 2000 mM KCl, 40 mM K3PO4) was added to all the wells except the control
wells, which received 5 μL of protein buffer instead. The plate was then mixed thoroughly and
incubated at 37 °C for 30 minutes. After incubation, 50 μL of kinase-Glo® reagent was added to each
well, followed by a 10-minute incubation at room temperature with gentle shaking to stabilize the
luminescent signal. Luminescence was then measured using a microplate reader.
The IC50 value—defined as the concentration of a compound required to reduce luminescence by
50%, compared to untreated control wells—was determined for each compound from the
corresponding dose–response curve generated by plotting PDK-1 inhibition (%) versus compound
concentration. Sodium dichloroacetate (SDA, 1000 μM) was used as a reference PDK-1inhibitor. […]

[2] = target: recombinant human LDHA protein (Homo sapiens, UniProt P00338); test: In vitro LDHA inhibitory assay (NADH consumption); type: biochemical; conditions: for inhibition at 100 µg/mL: three replicates, read-out: Mean Inhibition Percent ± SD, LDHA
Source text: The LDHA inhibitory efficiencies were investigated on Spectramax M2 spectrofluorometer via measuring the amounts of the consumed NADH^40 using an NAD^+/NADH quantification kit. […]
S3.2.3. In vitro LDHA inhibitory assay.
The LDHA inhibitory activity of the test compounds was investigated using Spectramax M2
spectrofluorometer by measuring the amounts of the consumed NADH [42] employing
NAD+/NADH quantification kit. Briefly, the assay medium containing various concentrations of
each test compound (50, 100, 200 and 300 μg/mL) was incubated in assay medium composed of 20
mM of HEPES-K+ buffer (pH 7.2), 20 μM of NADH, 2 mM of pyruvate and 10 ng of purified
recombinant human LDHA protein for 10 min utes. The activity of LDHA would result in reduction
of pyruvate into lactate with concomitant oxidation of NADH to NAD +. Since NADH (reduced
LDHA, could be inversely quantified by monitoring the change in the intensity of the fluorescence
at 340 nm over a 10-minute period. The rate of the fluorescence change (slope) in treated samples
was compared to that obtained from negative control experiment (100 % enzymatic activity) to
determine the percentage of inhibition. The IC50 value—defined as the compound concentration
required to reduce the luminescence by 50%, compared to untreated control wells—was
determined for each compound from the corresponding dose–response curve generated by
plotting LDHA inhibition (%) against compound concentration.
was used as the reference LDHA inhibitor. […]

[3] = tested on: LoVo colon carcinoma cells; test: Cell viability, LDH release assay, LoVo; conditions: for viability at 100 µg/mL / IC50: Homo sapiens, LoVo, 48 h; for viability at 100 µg/mL: read-out: Mean % of viable cells ± SD, LoVo, 100 µg/mL, 48 h, LDH release assay; for IC50: read-out: Mean IC50 Values in µM ± SD, LoVo cells
Experimental: (§1) The studied compounds were also screened for their cytotoxic effects on HCT-116 and LoVo colon carcinoma cells, as well as normal HUVECs, using the standard LDH assay at a concentration of 100 µg/mL.
(§2) The antiproliferative activities of the newly synthesized compounds 3a–e, 8, 9a–c, 13, 14, 17, 18a–h, 20, 22, 23 and 25 were examined on human colon HCT-116 and LoVo cell lines as well as HUVEC (American Type Culture Collection, Manassas, VA, USA). […]
(§3) S3.2.4. Cell culture and viability assay.
(§4) The cytotoxic activities of the newly synthesized compounds (3a-e, 8, 9a-c, 13, 14, 17, 18a-h, 20, 22,
(§5) 23, and 25) were examined on human colon cancer cell lines HCT-116 and Lovo (American Type
(§6) Culture Collection, USA). Various concentrations (50, 100, 200, and 400 μg/mL) of test compounds
(§7) were prepared in Dulbecco’s Modified Eagles Medium (PAN-Biotech, Barcelona, Spain),

[4] = tested on: HCT-116 colon carcinoma cells; test: Cell viability, LDH release assay, HCT-116; conditions: for viability at 100 µg/mL / IC50: Homo sapiens, HCT-116, 48 h; for viability at 100 µg/mL: read-out: Mean % of viable cells ± SD, HCT-116, 100 µg/mL, 48 h, LDH release assay; for IC50: read-out: Mean IC50 Values in µM ± SD, HCT-116 cells
Experimental: as §1, §2, §3, §4, §5, §6, §7

[5] = Cell viability, LDH release assay, normal HUVECs; conditions: human, normal HUVECs, Mean % of viable cells ± SD, HUVEC
Experimental: as §1, §2
medium served used as negative and positive controls, respectively. Percentages of viable cells […]
were calculated based on relative optical density (OD) values (at 550 nm) for compound-treated […]
wells (final concentration of 100 μg/mL), compared to the negative control, and expressed as mean value (%) ± SD from two replicates. Graphing dose-response curves representing the compound […]
concentration versus the percentages of viable cells was also conducted to deduce the half - […]
Additionally, the safety profiles of the studied compounds were assessed against normal cells […]
(HUVECs) at final concentration of 100 μg/mL . HUVECs were grown in Dulbecco’s Modified Eagle’s Medium supplemented with 10% FBS, 2 mM glutamine (Sigma Aldrich), 100 units/mL penicillin and […] streptomycin (Life Technologies; Paisley, UK). […]

[6] = 0.1% Triton X-100 in assay medium

| Compound | IC50 [1] [mM] | inhibition at 100 µg/mL (PDK-1) [%] | inhibition at 100 µg/mL [2] [%] | viability at 100 µg/mL [3] [%] | viability at 100 µg/mL [4] [%] | viability at 48 h, 100 µg/mL [5] [%] | IC50 (PDK-1; three independent experiments, read-out: Mean IC50 µM ± SD, PDK-1) [µM] | IC50 ([2]; three independent experiments, read-out: Mean IC50 µM ± SD, LDHA) [µM] | IC50 [3] [µM] | IC50 [4] [µM] | inhibition at 1000 µM ([2]; SO at 1000 µM (111.03 µg/mL), read-out: Mean Inhibition Percent, LDHA (reference inhibitor)) [%] | Mean % of viable cells, LoVo (positive control) [3, 6] [%] | Mean % of viable cells, HCT-116 (positive control) [4, 6] [%] |
| --- | --- | --- | --- | --- | --- | --- | --- | --- | --- | --- | --- | --- | --- |
| Cc1cc(C(C)(C)C)c(O)c(C(C)(C)C)c1 [BHT, butylated hydroxytoluene, reference compound] | 0.245 ± 0.027 |  |  |  |  |  |  |  |  |  |  |  |  |
| CCOC(=O)c1c(/N=C/c2cc(Br)c(O)c(OC)c2)sc2c1CCC(c1ccccc1)C2 (stereo not drawn) [Compound 3a, (E)-Ethyl2-((3-bromo-4-hydroxy-5-methoxybenzylidene)amino)-6-phenyl-4,5,6,7-tetrahydrobenzo[b]thiophene-3-carboxylate] | 0.214 ± 0.027 | 25.1 ± 3.04 | 25.8 ± 2.48 | 57.7 ± 1.53 | 60.7 ± 3.06 | 85 ± 1.73 |  |  |  |  |  |  |  |
| COc1cc(OC)c(/C=N/c2sc3c(c2C#N)CCCC3)c(OC)c1 [Compound 3b, (E)-2-((2,4,6-Trimethoxybenzylidene)amino)-4,5,6,7-tetrahydrobenzo[b]thiophene-3-carbonitrile] | 0.522 ± 0.025 | 94.7 ± 2.33 | 82.8 ± 3.18 | < 29 | < 29 | ~90 | 147 ± 5.95 | 167 ± 10.1 | 190 | 170 |  |  |  |
| COc1cc(/C=N/c2ncnc3sc4c(c23)CCCC4)cc(Br)c1O [Compound 3c, (E)-2-Bromo-6-methoxy-4-(((5,6,7,8-tetrahydrobenzo[4,5]thieno[2,3-d]pyrimidin-4-yl)imino)methyl)phenol] | 0.476 ± 0.038 | 7.6 ± 0.85 | 40 ± 1.41 | 95.7 ± 1.53 | 89.3 ± 4.16 | 93 ± 2.65 |  |  |  |  |  |  |  |
| Oc1ccc2ccccc2c1/C=N/c1ncnc2sc3c(c12)CCCC3 [Compound 3e, (E)-1-(((5,6,7,8-Tetrahydrobenzo[4,5]thieno[2,3-d]pyrimidin-4-yl)imino)methyl) naphthalene-2-ol] | 0.89 ± 0.039 | 31.2 ± 3.18 | 28.3 ± 1.84 | 62.3 ± 2.52 | 57 ± 1.73 | 96.7 ± 1.16 |  |  |  |  |  |  |  |
| O=c1[nH]cc(F)c(=O)[nH]1 [Compound 5-FU, 5-Fluorouracil, reference compound] |  |  |  |  |  |  |  |  | 20 ± 3.21 | 27 ± 1.87 |  |  |  |
| CCOC(=O)c1sc(N2C(=O)CSCC2=O)nc1C [Compound 8, Ethyl 2-(3,5-Dioxothiomorpholino)-4-methylthiazole-5-carboxylate] | 1.52 ± 0.07 | 16.6 ± 2.19 | 23.2 ± 1.06 | 13.5 ± 0.71 | 26.5 ± 2.12 | 84.6 ± 2.54 |  |  | 320 ± 7.44 | 410 ± 13.5 |  |  |  |
| CCOC(=O)c1sc(/N=C/c2cc(Br)c(O)c(OC)c2)nc1C [Compound 9a, Ethyl (E)-2-((3-bromo-4-hydroxy-5-methoxybenzylidene)amino)-4-methyl thiazole-5-carboxylate] | 1.55 ± 0.035 | 26.9 ± 2.62 | 40.5 ± 2.19 | 65.3 ± 3.54 | 72 ± 2.65 | 70.3 ± 1.53 |  |  |  |  |  |  |  |
| CCOC(=O)c1sc(/N=C/c2cc(OC)c(OC)c(OC)c2)nc1C [Compound 9b, Ethyl(E)-4-methyl-2-((3,4,5-trimethoxybenzylidene)amino)thiazole-5-carboxylate] | 1.81 ± 0.115 | 30.1 ± 1.56 | 33.4 ± 1.98 | 60.3 ± 2.83 | 54 ± 4.58 | 81.7 ± 2.52 |  |  |  |  |  |  |  |
| CCOC(=O)c1sc(/N=C/c2c(O)ccc3ccccc23)nc1C [Compound 9c, Ethyl(E)-2-(((2-hydroxynaphthalen-1-yl)methylene)amino)-4-methylthiazole-5-carboxylate] | 0.881 ± 0.041 | 48.8 ± 1.77 | 67.3 ± 3.32 | 60.3 ± 2.12 | 64.3 ± 3.06 | 80.7 ± 3.22 |  |  |  |  |  |  |  |
| COc1cc2nc(C)n(-c3ccc(-c4nc5ccccc5s4)cc3)c(=O)c2cc1OC [Compound 13, 3-(4-(Benzo[d]thiazol-2-yl)phenyl)-6,7-dimethoxy-2-methylquinazolin-4(3H)-one] | 1.82 ± 0.188 | 40.5 ± 2.76 | 40.2 ± 3.18 | 86.5 ± 2.12 | 71.5 ± 2.12 | 84 ± 2.33 |  |  |  |  |  |  |  |
| NC(=O)C(=O)O [SO, sodium oxamate, reference compound] |  |  |  |  |  |  |  |  |  |  | 100 |  |  |
| Triton X-100 [reference compound] |  |  |  |  |  |  |  |  |  |  |  | 0 | 0 |
